# Laboratory results: publication PMC7999702, “Bioactive Bromotyrosine Derivatives from the Pacific Marine Sponge Suberea clavata (Pulitzer-Finali, 1982)” (Marine Drugs, 2021)
# Read-outs that look alike come from different tables or passages of the source.
# Experiments:
# Halomonas aquamarina = test: Antibacterial bioassay, inhibition of bacterial growth (MIC); type: cell-based, Halomonas aquamarina (ATCC 14400); conditions: for MIC Halomonas aquamarina / MIC: 48 h; for MIC toward Halomonas aquamarina: the lowest concentration tested; for MIC: Vreelandella aquamarina, read-out: MIC Halomonas aquamarina
# Description: (§1) Preparation of the compounds: antifouling efficiency of the compounds was assessed towards the inhibition of growth of key bacteria involved in marine and terrestrial surface colonisation. All bioassays were run in six replicates and using two batches of organisms. Compounds were tested at 0.01, 0.1, and 1 µg/mL. 96 well-plates were used and were coated with the compounds. Methanol was used as a carrier solvent and after its evaporation plates were sterilized under UV exposure for 30 min [41].
# (§2) Seven strains of marine bacteria i.e., Halomonas aquamarina (ATCC 14400), Polaribacter irgensii (ATCC 700398), Shewanella putrefaciens (ATCC 8071), Roseobacter littoralis (ATCC 495666), Pseudoalteromonas elyakovii (ATCC 700519), Vibrio aestuarianus (ATCC 35048), Vibrio natriegens (ATCC 14058), and three strains of terrestrial bacteria, i.e., Escherichia coli (ATCC 11775), Staphylococcus aureus (ATCC 126000), and Pseudomonas aeruginosa (ATCC 16145) were used to assess the antibacterial potency of the compounds.
# (§3) Inhibition of bacterial growth: experiments were run as previously described by Maréchal et al.. 96-well plates containing the compounds were inoculated with the bacteria (2 × 10^8 cells/mL) in LB medium ([…], Sigma, Andover, UK), (supplemented with NaCl (35 g/L) for marine strains), at 30 °C for 48 h. After incubation, the intensity of growth in the presence of the tested compounds and control (media only) was assessed by measurement of the OD 620 nm using a spectrophotometer (Apollo LB912, Berthold Technologies). Results are expressed as minimum inhibitory concentrations (MIC values).
# Escherichia coli = test: as above; type: cell-based, Escherichia coli (ATCC 11775); conditions: for MIC: Escherichia coli
# Description: as §1, §2, §3
# Vibrio aesturianus = test: as above; type: cell-based, Vibrio aestuarianus (ATCC 35048); conditions: for MIC: Vibrio
# Description: as §1, §2, §3
# DNMT1 = target: T1, DNMT1 (Homo sapiens, UniProt P26358); test: In vitro DNMT1 activity inhibition assay; type: biochemical; conditions: compounds at 50 µM, 25 ng purified DNMT1, 2 h, 37 °C, three independent experiments
# T1 construct: purchased Active Motif
# Description: DNMT1 activity was measured using in vitro DNMT activity/inhibition assay (Active Motif, Rixensart, Belgium) according to manufacturer’s instructions. All compounds were used at a final 50 µM concentration. The methylation reaction was performed by incubating 25 ng of purified DNMT1 with compounds for 2 h at 37 °C in the presence of 0.01% Triton X-100. The methylated DNA was then recognized by the His-tagged methyl-CpG binding domain protein 2b. The addition of a poly-histidine antibody conjugated to horseradish peroxidase provided a colorimetric readout quantified with a spectrophotometer (SpectraCount, Packard) at the wavelength of 450 nm. Data of DNMT1 activity are reported as percentage of control.
# [1] = target: T2, Acetylcholinesterase from Electrophorus electricus (Electrophorus electricus, UniProt O42275); test: biochemical; type: biochemical
# T2 construct: purchased Sigma-Aldrich
# Description: This bioassay was set up after Ellman. This method is the most commonly used to screen compounds against this target. All reagents, buffers, and salts were purchased from Sigma-Aldrich (Saint-Louis, MO, USA). Two buffer solutions were prepared extemporaneously: buffer A (50 mM Tris-HCl pH 8 + 0.1% BSA); and buffer B (50 mM Tris-HCl pH 8 + 0.1 M NaCl + 0.02 M MgCl2.6H2O). Acetylcholinesterase from Electrophorus electricus (EC 3.1.1.7, AChE−0.2 U/mL) was dissolved in buffer A, 5,5′-dithiobis-2-nitrobenzoic acid (DTNB-Ellman’s reagent−3 mM) in buffer B, and acetylthiocholine iodide (ACTI−6 mM) in H2O. Tested compounds were dissolved in DMSO at 10 mg/mL, stored at −20 °C, and subsequently 100 times diluted in H2O before the assay. 10 μL AChE was preincubated for 10 min with 70 μL DTNB and 10 μL compounds solution in 96-well microplates. The enzymatic reaction was initiated with the addition of 10 μL ACTI, a synthetic substrate of AChE. After 30 min at 25 °C, absorbance of the plate was measured at 405 nm using a microplate reader (Tecan Infinite M200). Percentage of inhibition was calculated using the following equation: 100 × (Acontrol − Asample)/(Acontrol − A0), where Acontrol is the average absorbance of the wells in which tested compounds were replaced by water, Asample is the absorbance of the well with tested compound, and A0 the average absorbance of blank wells where AChE was omitted. Products leading to 50% inhibition of AChE were then submitted to dose-response experiments. Serial dilutions of the products were prepared (100, 50, 25, 12.5, 6.25, 3.125, 1.5625, and 0.78125 µg/mL). Enzymatic assay was performed according to the same procedure with 10 µL of each concentration added. IC50 values (concentration leading to 50% inhibition of enzymatic activity) were graphically determined by plotting the percentage of inhibition against the compound concentrations.
# Each assay was performed in triplicate and results are expressed as mean values ± SD.
# Roseobacter littoralis = test: Antibacterial bioassay, inhibition of bacterial growth (MIC); type: cell-based, Roseobacter littoralis (ATCC 495666); conditions: 48 h; for MIC: read-out: MIC Roseobacter littoralis
# Description: as §1, §2, §3
# [2] = Degradation of 11-epi-fistularin-3 in acetonitrile/water (+0.1% HCOOH); type: physicochemical; conditions: acetonitrile/water (+0.1% HCOOH) 1/1, room temperature, two weeks; HPLC analysis
# Description: We then decided to manage the degradation process of epi-fistularin-3 (1) in a less drastic conditions by dissolving it in a mixture of acetonitrile/water (+0.1% HCOOH) 1/1 and stirring at room temperature for two weeks. The reaction mixture was then dried under vacuum and chromatographed.
# The reaction mixture was then dried under vacuum and submitted for HPLC analysis.
# [3] = tested at 0.01, 0.1 and 1 µg/mL, 30 °C, OD 620 nm
# [4] = tested at 0.01, 0.1 and 1 µg/mL, 30 °C, 48 h, OD 620 nm
# [5] = mean ± SD, triplicate, 30 min at 25 °C, absorbance 405 nm, read-out: Acetylcholinesterase IC50
# [6] = tested at 0.01, 0.1 and 1 µg/mL, 30 °C, 48 h, OD 620 nm, read-out: MIC Escherichia coli
# [7] = tested at 0.01, 0.1 and 1 µg/mL, 30 °C, 48 h, OD 620 nm, read-out: MIC Vibrio aesturianus
# T2 sequence (O42275 24-633): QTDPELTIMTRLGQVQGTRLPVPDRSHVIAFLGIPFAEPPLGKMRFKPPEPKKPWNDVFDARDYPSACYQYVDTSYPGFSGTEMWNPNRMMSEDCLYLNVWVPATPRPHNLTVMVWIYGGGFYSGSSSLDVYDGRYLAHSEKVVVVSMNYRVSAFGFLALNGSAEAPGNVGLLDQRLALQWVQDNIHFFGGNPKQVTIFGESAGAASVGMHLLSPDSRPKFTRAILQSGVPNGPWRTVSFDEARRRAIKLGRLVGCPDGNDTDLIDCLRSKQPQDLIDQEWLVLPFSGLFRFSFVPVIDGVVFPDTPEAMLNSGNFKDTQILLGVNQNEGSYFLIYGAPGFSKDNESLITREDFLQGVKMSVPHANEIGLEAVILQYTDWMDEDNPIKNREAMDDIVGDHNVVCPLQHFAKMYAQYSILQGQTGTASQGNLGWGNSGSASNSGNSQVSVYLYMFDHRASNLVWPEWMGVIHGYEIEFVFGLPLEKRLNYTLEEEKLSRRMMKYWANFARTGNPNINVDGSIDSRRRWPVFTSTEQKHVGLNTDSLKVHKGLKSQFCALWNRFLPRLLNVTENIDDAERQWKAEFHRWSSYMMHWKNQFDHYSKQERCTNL
# T1 sequence (P26358 whole entry): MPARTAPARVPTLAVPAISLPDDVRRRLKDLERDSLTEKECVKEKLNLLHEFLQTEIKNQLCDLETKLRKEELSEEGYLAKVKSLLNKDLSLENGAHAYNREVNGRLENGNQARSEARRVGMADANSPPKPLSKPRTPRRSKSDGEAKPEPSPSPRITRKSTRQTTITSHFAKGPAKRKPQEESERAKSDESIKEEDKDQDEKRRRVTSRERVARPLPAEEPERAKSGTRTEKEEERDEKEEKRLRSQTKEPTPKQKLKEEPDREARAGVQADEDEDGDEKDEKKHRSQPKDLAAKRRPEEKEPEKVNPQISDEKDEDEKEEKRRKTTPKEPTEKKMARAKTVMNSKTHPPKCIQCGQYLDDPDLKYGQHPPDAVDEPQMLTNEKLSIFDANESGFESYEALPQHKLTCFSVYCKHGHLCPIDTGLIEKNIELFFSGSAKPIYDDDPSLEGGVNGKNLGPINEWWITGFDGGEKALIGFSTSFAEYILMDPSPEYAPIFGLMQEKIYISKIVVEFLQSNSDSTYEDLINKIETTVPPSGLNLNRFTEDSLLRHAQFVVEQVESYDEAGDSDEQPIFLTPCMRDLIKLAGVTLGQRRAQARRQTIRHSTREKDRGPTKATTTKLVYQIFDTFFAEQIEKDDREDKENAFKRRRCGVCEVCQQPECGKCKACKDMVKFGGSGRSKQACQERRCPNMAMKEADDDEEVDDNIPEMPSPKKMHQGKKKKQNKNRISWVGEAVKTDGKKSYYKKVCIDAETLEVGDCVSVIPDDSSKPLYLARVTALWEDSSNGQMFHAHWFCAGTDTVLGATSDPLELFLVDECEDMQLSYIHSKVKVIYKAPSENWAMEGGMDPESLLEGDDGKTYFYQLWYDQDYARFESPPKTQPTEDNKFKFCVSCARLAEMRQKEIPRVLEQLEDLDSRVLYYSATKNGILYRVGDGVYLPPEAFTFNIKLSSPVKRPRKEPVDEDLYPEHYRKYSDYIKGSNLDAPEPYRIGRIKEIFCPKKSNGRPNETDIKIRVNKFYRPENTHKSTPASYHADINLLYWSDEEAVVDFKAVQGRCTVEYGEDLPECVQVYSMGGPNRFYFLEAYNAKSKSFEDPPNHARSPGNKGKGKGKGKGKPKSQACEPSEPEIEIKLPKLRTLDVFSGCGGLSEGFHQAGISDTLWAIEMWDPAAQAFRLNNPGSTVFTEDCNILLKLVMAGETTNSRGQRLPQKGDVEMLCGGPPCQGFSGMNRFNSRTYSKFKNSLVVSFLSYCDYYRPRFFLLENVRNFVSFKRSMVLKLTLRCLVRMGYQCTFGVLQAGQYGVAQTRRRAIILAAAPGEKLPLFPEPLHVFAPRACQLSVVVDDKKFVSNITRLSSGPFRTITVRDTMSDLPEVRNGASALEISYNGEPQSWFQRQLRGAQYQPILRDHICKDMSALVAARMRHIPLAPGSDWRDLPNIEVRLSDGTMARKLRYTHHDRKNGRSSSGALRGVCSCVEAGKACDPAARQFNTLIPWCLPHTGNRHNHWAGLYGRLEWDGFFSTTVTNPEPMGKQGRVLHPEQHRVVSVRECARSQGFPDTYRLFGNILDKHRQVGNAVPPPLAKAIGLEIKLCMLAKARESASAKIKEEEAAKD
Compound,MIC Halomonas aquamarina (Halomonas aquamarina; [3]),MIC Escherichia coli (Escherichia coli; [4]) [µg/mL],MIC Vibrio aesturianus (Vibrio aesturianus; [4]) [µg/mL],"IC50 [1, 5] [µM]",MIC Roseobacter littoralis (Roseobacter littoralis; [3]) [µg/mL],MIC (Halomonas aquamarina; [3]) [µM],MIC (Escherichia coli; [6]) [µM],MIC (Vibrio aesturianus; [7]) [µM],MIC (Roseobacter littoralis; [3]) [µM],also measured
"COC1=C(Br)C(O)C2(C=C1Br)CC(C(=O)NCCCOc1c(Br)cc(CCNC(=O)C3=NOC4(C=C(Br)C(OC)=C(Br)C4O)C3)cc1Br)=NO2 (stereo not drawn) [11,17-dideoxyfistularin (14), 11,17-dideoxyfistularin-3]","0,01 µg/mL",>1,>1,10 ± 0.3,>1,–,–,–,–,"MIC toward Halomonas aquamarina (Halomonas aquamarina): 0.01 µg/mL; DNMT1 activity, percentage of control (DNMT1): statistically significant decrease"
"COC1=C(Br)[C@H](O)[C@@]2(C=C1Br)CC(C(=O)NCCCOc1c(Br)cc(C(O)CNC(=O)C3=NO[C@]4(C=C(Br)C(OC)=C(Br)[C@@H]4O)C3)cc1Br)=NO2 (stereo partly drawn) [11-deoxyfistularin-3 (13), 11-deoxyfistularin-3]","0,01 µg/mL",>1,>1,> 10,>1,–,–,–,–,MIC toward Halomonas aquamarina (Halomonas aquamarina): 0.01 µg/mL
"COC1=C(Br)[C@H](O)[C@@]2(C=C1Br)CC(C(=O)NCCC(O)CNC(=O)C1=NO[C@]3(C=C(Br)C(OC)=C(Br)[C@@H]3O)C1)=NO2 (stereo partly drawn) [11-hydroxyaerothionin (15), 11-hydroxy-aerothionin]","0,01 µg/mL",>1,>1,10 ± 0.3,>1,–,–,–,–,–
"COC1=C(Br)[C@H](O)[C@@]2(C=C1Br)CC(C(=O)NCCc1cc(Br)c(OC[C@H](O)CNC(=O)C3=NO[C@]4(C=C(Br)C(OC)=C(Br)[C@@H]4O)C3)c(Br)c1)=NO2 [17-deoxy-11-epi-fistularin-3 (10), 17-deoxy-11(R)-epi-fistularin-3]",–,–,–,> 10,–,0.01,> 1,> 1,> 1,–
"COC1=C(Br)[C@H](O)[C@@]2(C=C1Br)CC(C(=O)NCC(=O)c1cc(Br)c(OC[C@H](O)CNC(=O)C3=NO[C@]4(C=C(Br)C(OC)=C(Br)[C@@H]4O)C3)c(Br)c1)=NO2 [17-oxo-11-epi-fistularin-3 (8), 17-oxo-11-epi-fistularin-3]",–,–,–,–,–,–,–,–,–,"MIC (Halomonas aquamarina): > 1 µM; MIC (Escherichia coli; 48 h, read-out: MIC Escherichia coli): > 1 µM; MIC (Vibrio aesturianus; 48 h, read-out: MIC Vibrio aesturianus): 0.01 µM; IC50 [1]: > 10 µM; MIC (Roseobacter littoralis): > 1 µM"
"COC1=C(Br)[C@H](O)[C@@]2(C=C1Br)CC(C(=O)NC[C@@H](O)COc1c(Br)cc([C@H](O)CNC(=O)C3=NO[C@]4(C=C(Br)C(OC)=C(Br)[C@@H]4O)C3)cc1Br)=NO2 [epi-fistularin-3 (1), 11-epi-fistularin-3]",–,–,–,> 10,–,> 1,> 1,> 1,> 1,"stability in acidic aqueous acetonitrile (degradation products) [2]: gave agelorin A, agelorin B, and the compounds 2–7; remaining activity at 50 µM (DNMT1; read-out: DNMT1 activity, percentage of control): ~70%"
"COC1=C(Br)[C@H](O)[C@@]2(C=C1Br)CC(C(=O)NC[C@@H](O)COc1c(Br)cc([C@H](O)CNC(=O)/C(Cc3cc(Br)c(OC)c(Br)c3O)=N/O)cc1Br)=NO2 [suberein-1 (2), suberein-1]",–,–,–,> 10,–,> 1,> 1,0.01,1,–
"COC1=C(Br)[C@H](O)[C@@]2(C=C1Br)CC(C(=O)NC[C@@H](O)c1cc(Br)c(OC[C@H](O)CNC(=O)/C(Cc3cc(Br)c(OC)c(Br)c3O)=N/O)c(Br)c1)=NO2 [suberein-2 (3), suberein-2]",–,–,–,> 10,–,> 1,0.01,0.01,> 1,"MIC (Escherichia coli; the lowest concentration tested, read-out: MIC against E. coli): 0.01 µg/mL; MIC (Vibrio aesturianus; the lowest concentration tested, read-out: MIC against V. aesturianus): 0.01 µg/mL"
agelorin A [agelorin A (11)],0.1 µg/mL,–,0.1,–,0.1,–,–,–,–,–
agelorin B [agelorin B (12)],>1 µg/mL,>1,>1,–,>1,–,–,–,–,–
